Data taken from patent publication US20070128217A1 (priority 2003, published 2007).

Legend:
[1] = test system: antibodies in sera from SARS patients (sera 1a, 1b, 2, 6, 37, 62, London, SARS-yellow, SARS-green); assay type: binding, human; parameters: Binding of serum 6 to linear peptides of protein X1 of SARS-CoV Urbani / Binding of serum 37 to linear peptides of protein X1 of SARS-CoV Urbani / Binding of serum 6 to looped/cyclic peptide (PEPSCAN-ELISA) / Binding of serum 37 to looped/cyclic peptide (PEPSCAN-ELISA) / Binding of serum 37 to looped/cyclic peptides of protein X1 of SARS-CoV Urbani / Binding of serum 6 to linear peptides of protein X2 / Binding of serum 37 to linear peptides of protein X2 / Binding of serum 37 to looped/cyclic peptides of protein X2 of SARS-CoV Urbani / Binding of serum 6 to linear peptides of protein M of SARS-CoV Urbani / Binding of serum 37 to linear peptides of protein M of SARS-CoV Urbani / Binding of serum 6 to looped/cyclic peptides of protein M of SARS-CoV Urbani / Binding of serum 37 to looped/cyclic peptides of protein M of SARS-CoV Urbani / Binding of serum 6 to linear peptides of protein X3 of SARS-CoV Urbani / Binding of serum 37 to linear peptides of protein X3 of SARS-CoV Urbani / Binding of serum 37 to looped/cyclic peptides of protein X3 of SARS-CoV Urbani / Binding of serum 6 to linear peptides of protein X4 of SARS-CoV Urbani / Binding of serum 37 to linear peptides of protein X4 of SARS-CoV Urbani / Binding of serum 37 to looped/cyclic peptides of protein X4 of SARS-CoV Urbani / Binding of serum 6 to linear peptides of protein X5 of SARS-CoV Urbani / Binding of serum 37 to linear peptides of protein X5 of SARS-CoV Urbani / Binding of serum 37 to looped/cyclic peptides of protein X5 of SARS-CoV Urbani / Binding of serum 6 to linear peptides of protein N of SARS-CoV Urbani / Binding of serum 37 to linear peptides of protein N of SARS-CoV Urbani / Binding of serum 6 to linear peptide (PEPSCAN-ELISA) / Binding of serum 1a to looped/cyclic peptides of protein N of SARS-CoV Urbani / Binding of serum 1b to looped/cyclic peptides of protein N of SARS-CoV Urbani / Binding of serum 2 to looped/cyclic peptides of protein N of SARS-CoV Urbani / Binding of serum 6 to looped/cyclic peptides of protein N of SARS-CoV Urbani / Binding of serum 37 to looped/cyclic peptides of protein N of SARS-CoV Urbani / Binding of serum 62 to looped/cyclic peptides of protein N of SARS-CoV Urbani / Binding of serum London to looped/cyclic peptides of protein N of SARS-CoV Urbani / Binding of serum SARS-green to looped/cyclic peptides of protein N of SARS-CoV Urbani: unit not given here
[2] = test system: control sera (pooled serum of ten healthy LUMC hospital workers; commercial negative donor pooled serum from the Dutch bloodbank); assay type: binding, human
[3] = test system: rabbit serum obtained by immunizing a rabbit with the SARS-CoV strain Frankfurt 1; assay type: binding; parameters: Binding of a rabbit serum to linear peptides / Binding of a rabbit serum to looped peptides / Rabbit serum linear peptides / Rabbit serum looped peptides / Binding of a rabbit serum to linear peptides of protein N of SARS-CoV Urbani (Rabbit serum linear peptides) / Binding of a rabbit serum to looped/cyclic peptides of protein N of SARS-CoV Urbani (Rabbit serum looped peptides): unit not given here

Row | Sequence | Binding of serum 1a to linear peptides of protein X2 [1] | Binding of serum 1a to looped/cyclic peptides of protein X2 of SARS-CoV Urbani [1] | Binding of serum 1b to linear peptides of protein X2 [1] | Binding of serum 1b to looped/cyclic peptides of protein X2 of SARS-CoV Urbani [1] | Binding of serum 2 to linear peptides of protein X2 [1] | Binding of serum 2 to looped/cyclic peptides of protein X2 of SARS-CoV Urbani [1] | Binding of serum 6 to linear peptides of protein X2 [1] | Binding of serum 6 to looped/cyclic peptides of protein X2 of SARS-CoV Urbani [1] | Binding of serum 37 to linear peptides of protein X2 [1] | Binding of serum 37 to looped/cyclic peptides of protein X2 of SARS-CoV Urbani [1] | Binding of serum 62 to looped/cyclic peptides of protein X2 of SARS-CoV Urbani [1] | Binding of serum London to looped/cyclic peptides of protein X2 of SARS-CoV Urbani [1] | Binding of serum SARS-green to looped/cyclic peptides of protein X2 of SARS-CoV Urbani [1] | Binding of serum SARS-yellow to looped/cyclic peptides of protein X2 of SARS-CoV Urbani [1] | Binding of Control Serum Blood-Bank to Looped peptides [2] | Binding of Control serum Blood-bank to linear peptides [2] | Binding of Control serum LUMC to linear peptides [2] | Binding of Control serum LUMC to looped peptides [2] | Binding of a rabbit serum to linear peptides [3] | Binding of a rabbit serum to looped peptides [3] | further results
1 | LKMLHSSSLTSLLKT | 0.6 | 0.5 | 0.5 | 0.5 | 0.6 | 0.3 | 0.4 | 0.3 | 0.6 | 0.4 | 0.6 | 0.2 | 0.3 | 0.2 | 0.6 | 0.7 | 0.4 | 0.5 | 0.2 | 0.4 | Binding of serum 62 to linear peptides of protein X2 [1]: 0.6; Binding of serum London to linear peptides of protein X2 [1]: 0.5; Binding of serum SARS-green to linear peptides of protein X2 [1]: 0.5; Binding of serum SARS-yellow to linear peptides of protein X2 [1]: 0.6
2 | LLACLCKHKKVSTNL | – | 0.4 | – | 0.4 | – | 0.4 | – | 0.4 | – | 0.5 | 0.7 | 0.2 | 0.3 | 0.4 | 0.5 | 0.8 | 0.8 | 0.7 | 0.4 | 0.4 | Recognition of the peptide by sera of SARS-CoV infected individuals, and form (linear, looped/cyclic) in which it is recognized [1]: recognized in linear form
3 | LLKTHRMCKYTQSTA | 0.8 | 0.4 | 0.5 | 0.3 | 0.6 | 0.2 | 0.6 | 0.3 | 0.7 | 0.2 | 0.4 | 0.2 | 0.2 | 0.2 | 0.4 | 0.7 | 0.6 | 0.4 | 0.5 | 0.3 | Binding of serum 62 to linear peptides of protein X2 [1]: 0.7; Binding of serum London to linear peptides of protein X2 [1]: 0.5; Binding of serum SARS-green to linear peptides of protein X2 [1]: 0.6; Binding of serum SARS-yellow to linear peptides of protein X2 [1]: 0.8
